From PMC7269146, “Jingzhaotoxin-X, a gating modifier of Kv4.2 and Kv4.3 potassium channels purified from the venom of the Chinese tarantula Chilobrachys jingzhao” (The Journal of Venomous Animals and Toxins Including …, 2020)
Where a SMILES comes first, the peptide text is derived from it. Bridges are numbered along the chain shown (N, C = ends).

Molecular target: T1, Kv4.2 (Rattus norvegicus, UniProt Q63881)
T1 construct: expressed in transfected cells; host or cells: HEK293t
T1 sequence (Q63881 1-630): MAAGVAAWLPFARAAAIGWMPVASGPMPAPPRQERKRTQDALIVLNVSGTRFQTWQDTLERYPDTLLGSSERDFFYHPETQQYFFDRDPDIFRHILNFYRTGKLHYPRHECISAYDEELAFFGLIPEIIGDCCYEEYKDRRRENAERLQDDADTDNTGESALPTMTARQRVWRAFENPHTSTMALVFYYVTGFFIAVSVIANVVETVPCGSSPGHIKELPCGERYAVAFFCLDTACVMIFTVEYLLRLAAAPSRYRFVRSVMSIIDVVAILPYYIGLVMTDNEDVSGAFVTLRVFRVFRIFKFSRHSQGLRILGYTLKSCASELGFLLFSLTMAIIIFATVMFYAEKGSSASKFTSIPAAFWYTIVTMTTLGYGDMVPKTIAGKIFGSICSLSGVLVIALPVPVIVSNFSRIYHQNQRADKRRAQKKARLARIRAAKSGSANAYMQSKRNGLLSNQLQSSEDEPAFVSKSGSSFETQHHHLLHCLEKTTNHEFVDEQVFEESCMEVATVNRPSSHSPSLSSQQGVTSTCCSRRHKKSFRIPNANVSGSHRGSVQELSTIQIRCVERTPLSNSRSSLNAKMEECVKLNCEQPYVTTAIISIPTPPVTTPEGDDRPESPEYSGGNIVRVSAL
Experiment: whole-cell patch-clamp, Kv4.2 in HEK293t cells, concentration-response and time course
Assay type: cell-based
Excerpt: Rat cDNA genes encoding Kv4.2 (Accession: NM_031730.2) and Kv4.3 (Accession: AB003587.1) were subcloned to vector pcDNA3.1. In addition, human cDNA genes encoding Nav1.7 (Accession: DQ857292.1) and Nav1.5 (Accession: AB158469.2) were subcloned to vectors pcDNA3.1-mod and pcDNA3.1, separately. Then, Kv4.2, Kv4.3, Nav1.5 and Nav1.7 constructs were transiently transfected into the human embryonic kidney 293t (HEK293t) cells using lipofectamine 2000 (Invitrogen, USA) in accordance with manufacturer protocols. Thereafter, HEK293 cells were inoculated within Dulbecco’s modified Eagle’s medium (DMEM) containing 10% fetal bovine serum (FBS) at 5% CO2 and 37°C. The Kv4.3 channel and the Kv4.2 counterpart were then transfected in the absence of β subunit. Subsequently, cells were incubated with a DNA-lipofectamine mixture (one reporter plasmid for green fluorescence protein and channel constructs) for 4-6 h, and were washed with the fresh medium.
An EPC-10 patch-clamp amplifier (HEKA, Germany) was employed to record the potassium currents at the configuration of whole-cell patch-clamp under an ambient temperature of 22-25°C. The resistance was 2.0-3.0 MΩ when the recording pipette contained a full volume of internal solution (supplemented with 140 mM KCl, 10 mM HEPES, 2.5 mM MgCl2, 5 mM ATP and 11 mM EGTA). KOH was utilized to adjust the pH to 7.2, while sucrose was employed to adjust the osmolarity to 310 mOsm/L. The culture medium was replaced with an external solution containing 150 mM NaCl, 2.5 mM CaCl2, 10 mM HEPES, 2 mM MgCl2, 5 mM KCl, and 10 mM D-glucose. Similarly, sucrose and NaOH were applied to adjust the osmolarity to 330 mOsm/L and pH to 7.4. […] The series resistance was maintained at about 5 MΩ, with 65-70% compensation. Finally, the leakage currents and linear capacitance were subtracted digitally according to the P/4 protocol. […]
On-rates were determined by fitting time course data with a single exponential decay function (2): y = Ae^-kx + C, where x is the time, A is the normalized current value before the application of toxin (usually 1.0), and C is the final normalized current value following the block by the toxin. The on-rate (τon) was determined from the inverse of the rate constant k.
Off-rates were determined by fitting time course data with a double exponential association function (3): y = A(1-e^-kx) + B(1-e^-fx) + C, where x is the time, A or B is the normalized current value after washout of the toxin (usually 1.0 if complete washout occurred), and C is the normalized current value before the washout of the toxin. The off-rate (τoff) was determined from the inverse of the rate constant k or f.

## CC(C)C[C@@H]1NC(=O)[C@H](CCCCN)NC(=O)[C@H](Cc2ccc(O)cc2)NC(=O)[C@@H]2CSSC[C@@H]3NC(=O)[C@H](Cc4ccc(O)cc4)NC(=O)[C@H](Cc4ccccc4)NC(=O)CNC(=O)[C@H](C)NC(=O)[C@H](CSSC[C@H](NC(=O)[C@@H](N)CC(C)C)C(=O)N[C@@H](CO)C(=O)N[C@@H](CCCNC(=N)N)C(=O)N[C@@H](CCC(=O)O)C(=O)NCC(=O)N[C@@H](CCC(=O)O)C(=O)N[C@@H](Cc4ccccc4)C(=O)N2)NC(=O)[C@H](CSSC[C@@H](C(=O)N[C@@H](Cc2ccc(O)cc2)C(=O)N[C@@H](CCCNC(=N)N)C(=O)N[C@@H](CC(N)=O)C(=O)O)NC(=O)[C@H](Cc2c[nH]cn2)NC(=O)[C@H](CC(C)C)NC(=O)[C@H](C(C)C)NC(=O)[C@H](Cc2ccccc2)NC(=O)[C@H](C)NC(=O)[C@H](CCCCN)NC3=O)NC(=O)[C@H](CCCCN)NC(=O)[C@H](CCCNC(=N)N)NC1=O [JZTX-X, Jingzhaotoxin-X] (H-LCSREGEFCYKLRKCCAGFYCKAFVLHCYRN-OH; disulfide 2-16, 9-21, 15-28; N-terminus assumed)
-80 mV, no pulse during first ~100 s of treatment with 200 nM or 500 nM (order Kv4.2, Kv4.3), same as with pulses at 5 s intervals, n = 5
  inhibition of Kv4.2 at resting potential without pulses: approximately 95%
HEK293t cells, 1 nM-10 μM, 300-ms step to +20 mV from -80 mV, 22-25°C, pH 7.4, Hill equation fit, n = 7, read-out: IC50 for Kv4.2 channels
  IC50: 68 nM
HEK293t cells, +20 mV from -80 mV, n = 7
  Hill Coefficient, Kv4.2: 0.91
In 3 min following rinsing, high JZTX-X dose, HEK293t cells, n = 6
  reversal of Kv4.2 inhibition after rinsing: > 95%
